Test [1] deals with T1, Purified GS (glutamine synthetase) (Homo sapiens, UniProt P15104).
T1 construct: purified from sheep brain; purchased Sigma; host or cells: sheep brain
Description: Photoaffinity labeling (photoinsertion) of purified glutamine synthetase. Format: binding, sheep. Here is the method: (§1) In each experiment, photoprobe was added to the cerebral spinal fluid sample and vortexed for 6 seconds. Each treated sample was then allowed to mix for an additional 24 seconds at room temperature before exposure to ultraviolet (UV) light.
(§2) The treated samples were placed on ice and exposed to UV light for 45 seconds. The UV light source, a hand-held UV lamp with an intensity of 6200 μW/cm^2, was positioned 1 cm from the sample. The UV activation of the photoprobe labeled samples was always conducted at 0° C.
(§3) Each sample was fractionated by 10% SDS-PAGE, run over a period of 21/2 to 3 hours, with constant amperage of 35 mA and an initial voltage of 140 volts. Since all of the proteins were very well separated on a 10% gel, a gradient was not necessary.
(§4) The quantity of protein, as well as the amount of the radioactivity incorporated into each protein, was quantified by densitometric scans of the exposed X-ray film, or of the stained gel, or by liquid scintillation spectrometry of the protein band excised from the gel. Significance was determined by analysis of variance at a rho level below […].
(§5) 1. Purified GS (purchased from Sigma, purified from sheep brain) comigrated on SDS-PAGE identically with the 42,000 Mr protein in the cerebral spinal fluid from Alzheimer's disease patients.
(§6) 2. Purified GS and the 42 kD protein found in the cerebral spinal fluid from Alzheimer's disease patients had the same approximate saturation and Kd values for binding ATP, 8-azido-ATP and 2-azido-ATP. […] Therefore, both GS and the 42 kD protein in the cerebral spinal fluid from Alzheimer's disease patients had the same nucleotide binding properties.
(§7) Purified glutamine synthetase from sheep brain was photolabeled by the above-described method, but under various ionic conditions.

Test [2] deals with T2, 42 kD protein found in the cerebral spinal fluid from Alzheimer's disease patients (Homo sapiens, UniProt P15104).
T2 construct: 42 kD protein found in the cerebral spinal fluid from Alzheimer's disease patients; from tissue; host or cells: cerebral spinal fluid of Alzheimer's disease patients
T2 sequence (P15104 2-373 limits assumed): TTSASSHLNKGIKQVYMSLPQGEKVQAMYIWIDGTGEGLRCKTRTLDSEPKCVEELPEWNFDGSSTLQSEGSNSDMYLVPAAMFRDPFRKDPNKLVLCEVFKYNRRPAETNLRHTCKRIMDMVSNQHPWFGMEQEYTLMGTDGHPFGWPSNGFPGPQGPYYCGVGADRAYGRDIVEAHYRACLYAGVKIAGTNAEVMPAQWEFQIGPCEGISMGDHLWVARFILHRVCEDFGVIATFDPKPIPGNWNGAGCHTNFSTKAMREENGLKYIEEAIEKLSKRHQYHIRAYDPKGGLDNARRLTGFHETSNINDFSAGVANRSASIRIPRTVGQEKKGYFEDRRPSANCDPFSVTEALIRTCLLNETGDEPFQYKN
Nature of the test: Photoaffinity labeling (photoinsertion) of the 42 kD protein in cerebral spinal fluid from Alzheimer's disease patients. Format: binding. Here is the method: Each assay was performed on 15 μl of cerebral spinal fluid. Although the amount of cerebral spinal fluid tested remained constant for each experiment, the protein concentration of each sample varied to some degree.
Each cerebral spinal fluid sample was photolabeled with [^32 P]8N3 ATP to identify the 42,000 Mr protein. The cerebral spinal fluid sample was comprised of cerebral spinal fluid, buffer, and water. The photoprobes used in each experiment were prepared by the inventor according to the procedures disclosed by Potter and Haley in Meth. in Enzymol., 91:613-633 (1983). Probes were also available commercially through ICN Radiochemicals 2727 Campus Drive, Irvine, Calif. 92715.
as §1, §2, §3, §4, §6

The subject of test [3] is T3, Purified GS (glutamine synthetase).
T3 construct: purified from sheep brain; purchased Sigma; host or cells: sheep brain
Description: Photoaffinity labeling (photoinsertion) of purified glutamine synthetase. Format: binding, sheep. The settings on record: purified GS. As for the experimental part: as §1, §2, §3, §4, §5, §6, §7

In a further test the test system is glutamine synthetase. Description: Enzymatic activity of glutamine synthetase. Format: biochemical, sheep. The note with it: 10 μM.

Results on 5 compounds are retold here after patent US5445937A, “Detection of Alzheimer's disease and other diseases using an improved photoaffinity labeling method” (The University of Kentucky Research Foundation, priority 1993, dated 1995).

Where two headings read alike, the source gives them in different places.

T1 sequence (P15104 whole entry): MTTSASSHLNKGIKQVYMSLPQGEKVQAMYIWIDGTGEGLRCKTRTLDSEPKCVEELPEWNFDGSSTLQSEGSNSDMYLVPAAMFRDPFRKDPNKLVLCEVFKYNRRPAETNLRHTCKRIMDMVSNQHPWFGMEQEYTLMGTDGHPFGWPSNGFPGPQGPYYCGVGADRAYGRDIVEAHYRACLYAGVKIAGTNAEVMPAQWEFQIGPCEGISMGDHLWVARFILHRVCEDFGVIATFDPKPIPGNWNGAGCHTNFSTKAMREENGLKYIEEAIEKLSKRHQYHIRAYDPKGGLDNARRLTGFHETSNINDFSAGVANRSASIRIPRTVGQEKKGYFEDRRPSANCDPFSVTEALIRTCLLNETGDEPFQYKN
T3 sequence (P15104 whole entry): as above

On to `Nc1ncnc2c1ncn2[C@@H]1O[C@H](COP(=O)(O)OP(=O)(O)OP(=O)(O)O)[C@@H](O)[C@H]1O` [ATP, adenosine triphosphate], for which the “effect on photolabeling with 8- or 2-azido-ATP” value in test [1] (purified GS, competition by natural nucleotide) is recorded as “decreased the photolabeling”; in test [2] (42 kD protein in AD CSF, competition by natural nucleotide), “decreased the photolabeling”.
Regarding `[N-]=[N+]=Nc1nc(N)c2ncn([C@@H]3O[C@H](COP(=O)(O)OP(=O)(O)OP(=O)(O)O)[C@@H](O)[C@H]3O)c2n1` [2-azido-ATP, 2-azidoadenosine 5'-triphosphate], the saturation of photoinsertion in test [1] (purified GS) and in test [2] (42 kD protein in AD CSF) was 40 to 50 µM throughout. For the same compound, the “amount of photo-incorporation on a mole to mole basis relative to [γ32P]8N3 ATP” value in test [3] and in test [2] (42 kD protein in AD CSF) was “greater” throughout. Moreover, in test [2] (42 kD protein in AD CSF, approximate Kd from photoinsertion, read-out: half maximal photoinsertion), the Kd is roughly 10 µM.
Consider `[N-]=[N+]=Nc1nc2c(N)ncnc2n1[C@@H]1O[C@H](COP(=O)(O)OP(=O)(O)OP(=O)(O)O)[C@@H](O)[C@H]1O` [8-azido-ATP, 8-azidoadenosine 5'-triphosphate], for which the saturation of photoinsertion in test [1] (purified GS) and in test [2] (42 kD protein in AD CSF) was 40 to 50 µM each time. In addition, the Kd in test [2] was roughly 10 µM.
As to `O=C(O)O` [ammonium bicarbonate], the “enhancement of binding/photolabeling by [32P]2N3 ATP” value in test [1] (purified GS, ligand added at 100 mM) is “about 5 fold”; in test [2] (42 kD CSF protein, ligand added at 100 mM) it was “about 5 fold”.
As for `[Cl][Mn][Cl]` [MnCl2], the “effect on photolabeling of GS by 8N3 ATP photolabel” value in test [1] (purified sheep brain GS, 10 μM, FIG. 5) was “increases dramatically”. The “effect on enzymatic activity of glutamine synthetase” value in the test with glutamine synthetase is recorded as “increases the enzymatic activity”.
